According to patent US20190071796A1, “PROCESS AND APPARATUS FOR MAKING ALIGNED OR TWISTED ELECTROSPUN FIBERS AND DEVICES” (The Johns Hopkins University, priority 2016, published 2019):

Assay: In vitro release of sunitinib from PLGA nanofiber-based mesh
Assay type: physicochemical
Details: 10% sunitinib/PLGA (w/w) (FIG. 14)

CCN(CC)CCNC(=O)c1c(C)[nH]c(/C=C2\C(=O)Nc3ccc(F)cc32)c1C [sunitinib, Sunitinib malate]
duration of in vitro sustained release: 30 days
